For this assay, the target named is T1, human PLK1 (Homo sapiens, UniProt P53350).
T1 construct: FLAG (DYKDDDDK) (N); made in house; host or cells: Sf21 insect cells, recombinant baculovirus (pFASTBAC1, Bac-to-Bac)
T1 sequence (P53350 with tags, fused parts or gaps): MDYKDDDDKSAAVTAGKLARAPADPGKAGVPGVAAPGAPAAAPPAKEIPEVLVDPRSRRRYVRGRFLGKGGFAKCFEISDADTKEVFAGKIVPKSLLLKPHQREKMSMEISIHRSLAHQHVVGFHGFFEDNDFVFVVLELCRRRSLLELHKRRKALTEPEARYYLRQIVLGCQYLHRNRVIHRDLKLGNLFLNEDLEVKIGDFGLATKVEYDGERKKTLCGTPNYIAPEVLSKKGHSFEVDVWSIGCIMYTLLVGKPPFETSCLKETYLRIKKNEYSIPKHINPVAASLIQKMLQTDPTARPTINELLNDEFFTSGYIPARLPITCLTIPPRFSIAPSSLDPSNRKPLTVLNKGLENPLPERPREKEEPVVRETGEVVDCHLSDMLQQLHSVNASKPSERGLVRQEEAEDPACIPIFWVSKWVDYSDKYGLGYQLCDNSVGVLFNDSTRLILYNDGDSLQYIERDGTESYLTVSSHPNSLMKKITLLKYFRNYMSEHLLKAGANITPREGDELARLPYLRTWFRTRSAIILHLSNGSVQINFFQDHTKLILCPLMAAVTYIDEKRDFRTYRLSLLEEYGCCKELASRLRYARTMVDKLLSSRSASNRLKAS
Nature of the assay: PLK1 in vitro enzymatic activity assay (phosphorylation of alpha casein by recombinant PLK1). In kind it is biochemical. As to conditions: recombinant FLAG-tagged PLK1, alpha casein substrate, 500 nmol/L ATP, 40 min at room temperature; read-out: pIC50 (PLK1) (converted). In short, it runs like this:
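Recombinant PLK1 from baculovirus-infected Sf21 cells (50 ng) phosphorylated 3 μg alpha casein for 40 min at room temperature in HEPES pH 7.5, Mg acetate, DTT buffer with 500 nmol/L ATP plus [γ-32P]ATP. TCA-precipitated phosphoprotein was filter-captured, washed, and counted by scintillation.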
`COc1cc(C(=O)NC2CC2)ccc1Nc1ncc2c(n1)N(C1CCCC1)CC(F)(F)C(=O)N2C` [Compound 2, 4-(9-cyclopentyl-7,7-difluoro-5-methyl-6-oxo-6,7,8,9-tetrahydro-5H-pyrimido[4,5-b][1,4]diazepin-2-ylamino)-N-cyclopropyl-3-methoxybenzamide]: the IC50 was greater than 2 nM.
As to `COc1cc(C(=O)NC2CCN(C(=O)CN(C)C)CC2)ccc1Nc1ncc2c(n1)N(C1CCCC1)CC(F)(F)C(=O)N2C` [Compound 11, 4-(9-cyclopentyl-7,7-difluoro-5-methyl-6-oxo-6,7,8,9-tetrahydro-5H-pyrimido[4,5-b][1,4]diazepin-2-ylamino)-N-(1-(2-(dimethylamino)acetyl)piperidin-4-yl)-3-methoxybenzamide], the IC50 was no more than 2 nM.
With `COc1cc(C(=O)N[C@H]2CC[C@H](O)CC2)ccc1Nc1ncc2c(n1)N(C1CCCCC1)CC(F)(F)C(=O)N2C` [Compound 40, 4-(9-cyclohexyl-7,7-difluoro-5-methyl-6-oxo-6,7,8,9-tetrahydro-5H-pyrimido[4,5-b][1,4]diazepin-2-ylamino)-N-((1r,4r)-4-hydroxycyclohexyl)-3-methoxybenzamide] the figure was no more than 2 nM.
To `COc1cc(CO)ccc1Nc1ncc2c(n1)N(C1CCCC1)CC(F)(F)CN2C` [Compound 137, (4-(9-cyclopentyl-7,7-difluoro-5-methyl-6,7,8,9-tetrahydro-5H-pyrimido[4,5-b][1,4]diazepin-2-ylamino)-3-methoxyphenyl)methanol] belongs greater than 2 nM.
For the molecule `COc1cc(C(=O)NC2CN(C)C2)ccc1Nc1ncc2c(n1)N(C1CCCC1)CC(C)(F)C(=O)N2C` (stereo not shown) [Compound 88, 4-(9-Cyclopentyl-7-fluoro-5,7-dimethyl-6-oxo-6,7,8,9-tetrahydro-5H-pyrimido[4,5-b][1,4]diazepin-2-ylamino)-3-methoxy-N-(1-methylazetidin-3-yl)benzamide], the IC50 was no more than 2 nM.
Regarding `COc1cc(C(=O)NN2CCCC2)ccc1Nc1ncc2c(n1)N(C1CCCCC1)CC(F)(F)C(=O)N2C` [Compound 67, 4-(9-cyclohexyl-7,7-difluoro-5-methyl-6-oxo-6,7,8,9-tetrahydro-5H-pyrimido[4,5-b][1,4]diazepin-2-ylamino)-3-methoxy-N-(pyrrolidin-1-yl)benzamide], the IC50 is no more than 2 nM.
Take `COc1cc(C(=O)NC2CCN(C)CC2)ccc1Nc1ncc2c(n1)N(C1CCCC1)CC(F)C(=O)N2C` (stereo not shown) [Compound 84, 4-(9-cyclopentyl-7-fluoro-5-methyl-6-oxo-6,7,8,9-tetrahydro-5H-pyrimido[4,5-b][1,4]diazepin-2-ylamino)-3-methoxy-N-(1-methylpiperidin-4-yl)benzamide]: the IC50 was no more than 2 nM.
Regarding `CCC1(F)CN(C2CCCC2)c2nc(Nc3ccc(C(=O)NC4CN(C)C4)cc3OC)ncc2N(C)C1=O` (stereo not shown) [Compound 95, 4-(9-Cyclopentyl-7-ethyl-7-fluoro-5-methyl-6-oxo-6,7,8,9-tetrahydro-5H-pyrimido[4,5-b][1,4]diazepin-2-ylamino)-3-methoxy-N-(1-methylazetidin-3-yl)benzamide], the IC50 was no more than 2 nM.
With `COc1cc(C(=O)NC2CCOCC2)ccc1Nc1ncc2c(n1)N(C1CCCCC1)CC(F)(F)C(=O)N2C` [Compound 66, 4-(9-cyclohexyl-7,7-difluoro-5-methyl-6-oxo-6,7,8,9-tetrahydro-5H-pyrimido[4,5-b][1,4]diazepin-2-ylamino)-3-methoxy-N-(tetrahydro-2H-pyran-4-yl)benzamide] the figure was no more than 2 nM.
With `C=C[C@@]1(F)CN(C2CCCC2)c2nc(Nc3ccc(C(=O)NC4CCN(CC)CC4)cc3OC)ncc2N(C)C1=O` [Compound 105, (R)-4-(9-cyclopentyl-7-fluoro-5-methyl-6-oxo-7-vinyl-6,7,8,9-tetrahydro-5H-pyrimido[4,5-b][1,4]diazepin-2-ylamino)-N-(1-ethylpiperidin-4-yl)-3-methoxybenzamide] the figure was no more than 2 nM; with `COc1cc(C(=O)NN2CCOCC2)ccc1Nc1ncc2c(n1)N(C1CCCCC1)CC(F)(F)C(=O)N2C` [Compound 65, 4-(9-cyclohexyl-7,7-difluoro-5-methyl-6-oxo-6,7,8,9-tetrahydro-5H-pyrimido[4,5-b][1,4]diazepin-2-ylamino)-3-methoxy-N-morpholinobenzamide], no more than 2 nM.
With `COc1cc(C(=O)NC2CN(C)C2)ccc1Nc1ncc2c(n1)N(C1CCCCC1)CC(C)(F)C(=O)N2C` (stereo not shown) [Compound 90, 4-(9-Cyclohexyl-7-fluoro-5,7-dimethyl-6-oxo-6,7,8,9-tetrahydro-5H-pyrimido[4,5-b][1,4]diazepin-2-ylamino)-3-methoxy-N-(1-methylazetidin-3-yl)benzamide] the figure was no more than 2 nM; with `CN1CCC(NC(=O)c2ccc(Nc3ncc4c(n3)N(C3CCCC3)CC(F)(F)C(=O)N4C)c(OC(F)(F)F)c2)CC1` [Compound 25, 4-(9-Cyclopentyl-7,7-difluoro-5-methyl-6-oxo-6,7,8,9-tetrahydro-5H-pyrimido[4,5-b][1,4]diazepin-2-ylamino)-N-(1-methylpiperidin-4-yl)-3-(trifluoromethoxy)-benzamide], greater than 2 nM.
On to `CNC(=O)c1ccc(Nc2ncc3c(n2)N(C2CCCCC2)CC(F)(F)C(=O)N3C)c(OC)c1` [Compound 60, 4-(9-cyclohexyl-7,7-difluoro-5-methyl-6-oxo-6,7,8,9-tetrahydro-5H-pyrimido[4,5-b][1,4]diazepin-2-ylamino)-3-methoxy-N-methylbenzamide], for which the IC50 is no more than 2 nM.
With `COc1cc(C(=O)NN2CCN(C(=O)CN(C)C)CC2)ccc1Nc1ncc2c(n1)N(C1CCCCC1)CC(F)(F)C(=O)N2C` [Compound 81, 4-(9-cyclohexyl-7,7-difluoro-5-methyl-6-oxo-6,7,8,9-tetrahydro-5H-pyrimido[4,5-b][1,4]diazepin-2-ylamino)-N-(4-(2-(dimethylamino)acetyl)piperazin-1-yl)-3-methoxybenzamide] the figure was no more than 2 nM; with `CN1CCC(NC(=O)c2ccc(Nc3ncc4c(n3)N(C3CCCC3)CC(F)(F)C(=O)N4C)c(F)c2)CC1` [Compound 22, 4-(9-Cyclopentyl-7,7-difluoro-5-methyl-6-oxo-6,7,8,9-tetrahydro-5H-pyrimido[4,5-b][1,4]diazepin-2-ylamino)-3-fluoro-N-(1-methylpiperidin-4-yl)benzamide], no more than 2 nM.
To `COc1cc(C(=O)NC2CNC2)ccc1Nc1ncc2c(n1)N(C1CCCCC1)CC(F)(F)C(=O)N2C` [Compound 43, N-(azetidin-3-yl)-4-(9-cyclohexyl-7,7-difluoro-5-methyl-6-oxo-6,7,8,9-tetrahydro-5H-pyrimido[4,5-b][1,4]diazepin-2-ylamino)-3-methoxybenzamide] belongs no more than 2 nM.
With `COc1cc(C(=O)NC2CCCNCC2)ccc1Nc1ncc2c(n1)N(C1CCCC1)CC(F)(F)C(=O)N2C` (stereo not shown) [Compound 14, N-(Azepan-4-yl)-4-(9-cyclopentyl-7,7-difluoro-5-methyl-6-oxo-6,7,8,9-tetrahydro-5H-pyrimido[4,5-b][1,4]diazepin-2-ylamino)-3-methoxybenzamide] the figure was no more than 2 nM; with `COc1c(Nc2ncc3c(n2)N(C2CCCC2)CC(F)(F)C(=O)N3C)ccc(C(=O)O)c1F` [Compound 123, 4-(9-Cyclopentyl-7,7-difluoro-5-methyl-6-oxo-6,7,8,9-tetrahydro-5H-pyrimido[4,5-b][1,4]diazepin-2-ylamino)-2-fluoro-3-methoxybenzoic acid], greater than 2 nM; with `COc1cc(C(=O)NN2CCN(C)CC2)ccc1Nc1ncc2c(n1)N(C1CCCCC1)CC(F)(F)C(=O)N2C` [Compound 34, 4-(9-cyclohexyl-7,7-difluoro-5-methyl-6-oxo-6,7,8,9-tetrahydro-5H-pyrimido[4,5-b][1,4]diazepin-2-ylamino)-3-methoxy-N-(4-methylpiperazin-1-yl)benzamide], no more than 2 nM.
`COc1cc(C(=O)NC2CCN(C)CC2)ccc1Nc1ncc2c(n1)N(C1CCCC1)CC(F)(F)CN2C` [Compound 138, 4-(9-cyclopentyl-7,7-difluoro-5-methyl-6,7,8,9-tetrahydro-5H-pyrimido[4,5-b][1,4]diazepin-2-ylamino)-3-methoxy-N-(1-methylpiperidin-4-yl)benzamide]: the IC50 is greater than 2 nM.
As for `COc1cc(C(=O)NN2CCN(C(C)C)CC2)ccc1Nc1ncc2c(n1)N(C1CCCCC1)CC(F)(F)C(=O)N2C` [Compound 79, 4-(9-cyclohexyl-7,7-difluoro-5-methyl-6-oxo-6,7,8,9-tetrahydro-5H-pyrimido[4,5-b][1,4]diazepin-2-ylamino)-N-(4-isopropylpiperazin-1-yl)-3-methoxybenzamide], the IC50 was no more than 2 nM.
With `COc1cc(C(=O)NC2CCN(C)CC2)ccc1Nc1ncc2c(n1)N(C1CCCCC1)CC(F)(F)C(=O)N2C` [Compound 33, 4-(9-cyclohexyl-7,7-difluoro-5-methyl-6-oxo-6,7,8,9-tetrahydro-5H-pyrimido[4,5-b][1,4]diazepin-2-ylamino)-3-methoxy-N-(1-methylpiperidin-4-yl)benzamide] the figure was no more than 2 nM; with `COc1cc(C(=O)N[C@@H]2CCCC[C@H]2O)ccc1Nc1ncc2c(n1)N(C1CCCCC1)CC(F)(F)C(=O)N2C` (racemic) [Compound 48, 4-(9-cyclohexyl-7,7-difluoro-5-methyl-6-oxo-6,7,8,9-tetrahydro-5H-pyrimido[4,5-b][1,4]diazepin-2-ylamino)-N-((trans)-2-hydroxycyclohexyl)-3-methoxybenzamide], no more than 2 nM; with `COc1cc(C(=O)N[C@H]2CCCNC2)ccc1Nc1ncc2c(n1)N(C1CCCCC1)CC(F)(F)C(=O)N2C` [Compound 37, (S)-4-(9-cyclohexyl-7,7-difluoro-5-methyl-6-oxo-6,7,8,9-tetrahydro-5H-pyrimido[4,5-b][1,4]diazepin-2-ylamino)-3-methoxy-N-(piperidin-3-yl)benzamide], greater than 2 nM.

The values above are taken from US20110201818A1, “POLO-LIKE KINASE INHIBITORS” (TAKEDA PHARMACEUTICAL COMPANY LIMITED, priority 2007, published 2011).
